# Assays:
# [1] = system: Enterococcus faecalis 117; assay: Comparison of glucoside substrates in semi-solid Columbia medium (Example 7); format: cell-based
# Citrobacter koseri 059 = assay: as above; format: cell-based
# [2] = system: Klebsiella pneumoniae 023; assay: as above; format: cell-based
# [3] = system: eight strains possessing β-galactosidase activity; assay: Fluorescent check of β-galactosidase activity in the eight discordant strains (Example 2); format: cell-based; details: all eight strains that selectively hydrolyzed Alizarin-2-β-D-galactoside
# Text: The vast majority of strains (96.5%) reacted in exactly the same way—i.e. either positively or negatively—with both substrates. Eight strains selectively hydrolyzed Alizarin-2-β-D-galactoside. […] Therefore, these substrates are extremely sensitive and can be used at very low concentrations.
# Escherichia coli 115 = assay: β-galactosidase detection in semi-solid Columbia medium (Example 1); format: cell-based; details: 0.2 g/l, no iron citrate
# Serratia marcescens 042 = assay: as above; format: cell-based; details: 0.2 g/l, no iron citrate
# [4] = system: Klebsiella pneumoniae 023; assay: as above; format: cell-based; details: 0.2 g/l, no iron citrate; 48 H
# Listeria seeligeri 080 = assay: β-glucosidase detection in API strip wells (Example 6); details: 0.4 g/l; 24 H
# eight (8) species tested = assay: β-glucosidase detection in API strip wells, all species together (Example 6); format: cell-based; details: of the eight (8) species tested; 0.4 g/l
# Enterococcus faecium 009 = assay: β-glucosidase detection in API strip wells (Example 6); details: 0.4 g/l
# [5] = system: Klebsiella pneumoniae 023; assay: as above; details: 0.4 g/l
# [6] = system: Listeria monocytogenes 022; assay: as above; details: 0.4 g/l
# Listeria innocua 036 = assay: as above; details: 0.4 g/l
# Listeria ivanovii 018 = assay: as above; details: 0.4 g/l
# [7] = 0.05 g/l + iron citrate 0.05 g/l, 18 H
# [8] = 0.05 g/l + iron citrate 0.05 g/l, 24 H
# [9] = 0.05 g/l + iron citrate 0.05 g/l, 48 H
# [10] = 0.1 g/l + iron citrate 0.05 g/l, 18 H
# [11] = 0.1 g/l + iron citrate 0.05 g/l, 24 H
# [12] = 0.1 g/l + iron citrate 0.05 g/l, 48 H
# [13] = 0.15 g/l, no iron citrate, 18 H
# [14] = 0.15 g/l, no iron citrate, 24 H
# [15] = 0.15 g/l, no iron citrate, 48 H
structure (smiles),measurement,setting,value
"O=C1c2ccccc2C(=O)c2c1ccc(O)c2O[C@@H]1O[C@H](CO)[C@@H](O)[C@H](O)[C@H]1O [1-Alizarin1-β-D-glucoside, Alizarin-1-β-D-glucoside]",Color,[1]; [7],Purple
same,Intensity,[1]; [7],3.5 arbitrary units
same,Color,[1]; [8],Purple
same,Intensity,[1]; [8],4 arbitrary units
same,Color,[1]; [9],Purple
same,Intensity,[1]; [9],4 arbitrary units
same,Color,[1]; [10],Purple
same,Intensity,[1]; [10],3.5 arbitrary units
same,Color,[1]; [11],Purple
same,Intensity,[1]; [11],4 arbitrary units
same,Color,[1]; [12],Purple
same,Intensity,[1]; [12],4 arbitrary units
same,Color,Citrobacter koseri 059; [7],Mauve
same,Intensity,Citrobacter koseri 059; [7],1.5 arbitrary units
same,Color,Citrobacter koseri 059; [8],Mauve
same,Intensity,Citrobacter koseri 059; [8],2 arbitrary units
same,Color,Citrobacter koseri 059; [9],Mauve
same,Intensity,Citrobacter koseri 059; [9],2.5 arbitrary units
same,Color,Citrobacter koseri 059; [10],Mauve
same,Intensity,Citrobacter koseri 059; [10],2.5 arbitrary units
same,Color,Citrobacter koseri 059; [11],Mauve
same,Intensity,Citrobacter koseri 059; [11],3 arbitrary units
same,Color,Citrobacter koseri 059; [12],Mauve
same,Intensity,Citrobacter koseri 059; [12],4 arbitrary units
same,Color,[2]; [7],Purple
same,Intensity,[2]; [7],2.5 arbitrary units
same,Color,[2]; [8],Purple
same,Intensity,[2]; [8],3 arbitrary units
same,Color,[2]; [9],Purple
same,Intensity,[2]; [9],3.5 arbitrary units
same,Color,[2]; [10],Purple
same,Intensity,[2]; [10],3.5 arbitrary units
same,Color,[2]; [11],Purple
same,Intensity,[2]; [11],4 arbitrary units
same,Color,[2]; [12],Purple
same,Intensity,[2]; [12],4 arbitrary units
Cc1cc(=O)oc2cc(O[C@@H]3O[C@H](CO)[C@H](O)[C@H](O)[C@H]3O)ccc12 [4-Methylumbelliferyl-β-D-galactoside],signal in the presence of the substrate,[3],production of a fluorescent signal
"OC[C@H]1O[C@@H](Oc2c[nH]c3cc(Cl)ccc23)[C@H](O)[C@@H](O)[C@H]1O [6-Chloro-3-indolyl-β-D-galactoside, reference compound]",Color,Escherichia coli 115; 18 H,pink
same,Intensity,Escherichia coli 115; 18 H,3.5
same,Color,Escherichia coli 115; 24 H,pink
same,Intensity,Escherichia coli 115; 24 H,3.5
same,Color,Escherichia coli 115; 48 H,pink
same,Intensity,Escherichia coli 115; 48 H,3.5
same,Color,Serratia marcescens 042; 18 H,pink
same,Intensity,Serratia marcescens 042; 18 H,0.3
same,Color,Serratia marcescens 042; 24 H,pink
same,Intensity,Serratia marcescens 042; 24 H,0.8
same,Color,Serratia marcescens 042; 48 H,pink
same,Intensity,Serratia marcescens 042; 48 H,3.5
same,Color,[4],pink
same,Intensity,[4],0.3
OC[C@H]1O[C@@H](Oc2c[nH]c3cc(Cl)ccc23)[C@H](O)[C@@H](O)[C@@H]1O [reference compound],Color observed,Listeria seeligeri 080,Pink
same,species in which activity was detected,eight (8) species tested,6 species
same,Color,[1]; [13],Pink
same,Intensity,[1]; [13],1.5 arbitrary units
same,Color,[1]; [14],Pink
same,Intensity,[1]; [14],2 arbitrary units
same,Color,[1]; [15],Pink
same,Intensity,[1]; [15],2.5 arbitrary units
same,Color observed,Enterococcus faecium 009; 4 H,Pink
same,Color observed,Enterococcus faecium 009; 24 H,Pink
same,Color,Citrobacter koseri 059; [13],Pink
same,Intensity,Citrobacter koseri 059; [13],0.5 arbitrary units
same,Color,Citrobacter koseri 059; [14],Pink
same,Intensity,Citrobacter koseri 059; [14],1 arbitrary units
same,Color,Citrobacter koseri 059; [15],Pink
same,Intensity,Citrobacter koseri 059; [15],2 arbitrary units
same,Color,[2]; [13],Pink
same,Intensity,[2]; [13],2 arbitrary units
same,Color,[2]; [14],Pink
same,Intensity,[2]; [14],2.5 arbitrary units
same,Color,[2]; [15],Pink
same,Intensity,[2]; [15],3 arbitrary units
same,Color observed,[5]; 4 H,Pink
same,Color observed,[5]; 24 H,Pink
same,Color observed,[6]; 4 H,Pink
same,Color observed,[6]; 24 H,Pink
same,Color observed,Listeria innocua 036; 4 H,Pink
same,Color observed,Listeria innocua 036; 24 H,Pink
same,Color observed,Listeria ivanovii 018; 4 H,Pink
same,Color observed,Listeria ivanovii 018; 24 H,Pink
